According to patent publication US8080558B2, “4-(tetrazol-5-yl)-quinazoline derivatives as anti-cancer agent” (Natco Pharma Limited, priority 2007, dated 2011):

Tested on: A549 cells
Experiment: Matrigel invasion assay (modified Boyden chamber), A549 cells
Format: cell-based
Conditions: 100 to 800 ng/ml
Protocol: The in vitro invasiveness of H1299 or A549 cells in the presence of various concentrations of NRC compounds (as determined by MTT assay) was assessed using a modified Boyden chamber assay. Cells were treated with these compounds for 48 h. 1×10^6 cells were suspended in 600 μl of serum-free medium supplemented with 0.2% BSA and placed in the upper compartment of the transwell chambers (Corning Costar Fischer Scientific Cat #07-200-158, Pittsburgh Pa.) coated with Matrigel (0.7 mg/ml). The lower compartment of the chamber was filled with 200 μl of serum-medium and the cells were allowed to migrate for 24 h. After incubation, the cells were fixed and stained with Hema-3 and quantified as previously described (Mohanam, et al. 1993). The migrated cells were quantified as percent invasion.
Matrigel invasion was performed as described in materials and methods. […] Using H1299 cells similar retardation patterns of invasion was observed.

Compound: C#Cc1cccc(Nc2ncnc3cc(OCCOC)c(OCCOC)cc23)c1 [Erlotinib]
- invasiveness: decreased invasiveness in a dose dependent manner
